Reference: PubChem BioAssay (NCI)
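Exposure lasted 48 hours, with cells grown in 96-well plates and compounds tested at five concentrations. GI50 marks 50% less growth. The concentration for full growth arrest is given as TGI.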

What was measured:
Test in all cases: NCI tumour cell line growth inhibition, 48 h
[1] = test system: SK-OV-3 ovarian
[2] = test system: NCI-H226 lung
[3] = test system: SNB-75 CNS
[4] = test system: HOP-92 NSCLC
[5] = test system: SK-MEL-2 melanoma
[6] = test system: TK-10 renal
[7] = test system: RXF 393 renal
[8] = test system: BT-549 breast
[9] = test system: HOP-62 NSCLC
[10] = test system: HCC-2998 colon
[11] = test system: MCF7 breast
[12] = test system: HS 578T breast
[13] = test system: KM12 colon
[14] = test system: HCT-15 colon
[15] = test system: UACC-62 melanoma
[16] = test system: SNB-19 CNS
[17] = test system: OVCAR-5 ovarian
[18] = test system: PC-3 prostate
[19] = test system: T-47D breast
[20] = test system: 786-0 renal
[21] = test system: MDA-MB-435
[22] = test system: CCRF-CEM leukemia
[23] = test system: A549 NSCLC
[24] = test system: MALME-3M melanoma
[25] = test system: NCI-H23 lung
[26] = test system: CAKI-1 renal
[27] = test system: NCI/ADR-RES ovarian
[28] = test system: UO-31 renal
[29] = test system: SF-295 CNS
[30] = test system: ACHN renal
[31] = test system: MDA-MB-231 breast
[32] = test system: HL-60(TB) leukemia
[33] = test system: MOLT-4 leukemia
[34] = test system: NCI-H522 lung
[35] = test system: SR leukemia
[36] = test system: SN12C renal
[37] = test system: HT29 colon
[38] = test system: NCI-H460 lung
[39] = test system: OVCAR-4 ovarian
[40] = test system: SK-MEL-5 melanoma
[41] = test system: SW-620 colon
[42] = test system: UACC-257 melanoma
[43] = test system: SF-268 CNS
[44] = test system: U251 CNS
[45] = test system: OVCAR-8 ovarian
[46] = test system: RPMI-8226 leukemia
[47] = test system: DU-145 prostate
[48] = test system: IGROV1 ovarian
[49] = test system: A498 renal
[50] = test system: COLO 205 colon
[51] = test system: EKVX NSCLC
[52] = test system: SF-539 CNS
[53] = test system: LOX IMVI melanoma
[54] = test system: M14 melanoma
[55] = test system: HCT-116 colon
[56] = test system: SK-MEL-28 melanoma
[57] = test system: K-562 leukemia
[58] = test system: OVCAR-3 ovarian

For `CCN1CCN(Cc2ccc(C(=O)Nc3nc4ccc(Oc5ccnc(C(=O)NC)c5)cc4s3)cc2C(F)(F)F)CC1`, the GI50 [1] was 7.95 µM, the TGI [1] was 32.2 µM and the GI50 [2] was 2.03 µM. The TGI [2] was greater than 100 µM, the GI50 [3] was 4.05 µM and the TGI [3] was 20.8 µM. For the same compound, the GI50 [4] was 1.01 µM, the TGI [4] was 7.26 µM and the GI50 [5] was 1.23 µM. It also gave a TGI [5] of 3.22 µM, a GI50 [6] of 2.65 µM and a TGI [6] of 6.83 µM. For the same compound, the GI50 [7] was 1.48 µM and the TGI [7] was 2.95 µM.

In the case of `CCCCCCCCNC(=O)c1ccc(Cn2c(CCCC)nc3c(N)nc4ccccc4c32)cc1`, the GI50 [1] is reported as 2.64 µM, the TGI [1] is reported as 7.47 µM and the GI50 [2] is reported as 14.5 µM. For the same compound, the TGI [2] was 41.4 µM, the GI50 [8] was 1.91 µM and the TGI [8] was 4.14 µM. It also gave a GI50 [9] of 2.57 µM, a TGI [9] of 11.1 µM and a GI50 [10] of 2.22 µM. It also gave a TGI [10] of 5.39 µM, a GI50 [3] of 1.72 µM and a TGI [3] of 4.2 µM. The GI50 [11] was 1.59 µM, the TGI [11] was 3.57 µM and the GI50 [12] was 1.96 µM. It also gave a TGI [12] of 4.33 µM, a GI50 [4] of 0.0269 µM and a TGI [4] of 0.838 µM. The GI50 [13] was 2.49 µM, the TGI [13] was 6.52 µM and the GI50 [14] was 1.7 µM. It also gave a TGI [14] of 3.87 µM, a GI50 [15] of 1.69 µM and a TGI [15] of 3.29 µM. The GI50 [16] was 2.8 µM, the TGI [16] was 10.2 µM and the GI50 [17] was 3.35 µM. For the same compound, the TGI [17] was 13.8 µM, the GI50 [18] was 2.55 µM and the TGI [18] was 11.5 µM. It also gave a GI50 [19] of 1.75 µM, a TGI [19] of 3.95 µM and a GI50 [20] of 1.71 µM. It also gave a TGI [20] of 3.34 µM, a GI50 [21] of 1.69 µM and a TGI [21] of 3.11 µM. For the same compound, the GI50 [22] was 1.73 µM, the TGI [22] was 4.96 µM and the GI50 [23] was 3.16 µM. It also gave a TGI [23] of 12.3 µM, a GI50 [24] of 1.8 µM and a TGI [24] of 3.51 µM. It also gave a GI50 [25] of 2.86 µM, a TGI [25] of 12.5 µM and a GI50 [26] of 1.65 µM. The TGI [26] was 6.24 µM, the GI50 [5] was 1.94 µM and the TGI [5] was 3.94 µM. It also gave a GI50 [27] of 1.64 µM, a TGI [27] of 3.42 µM and a GI50 [28] of 0.459 µM. The TGI [28] was 3.3 µM, the GI50 [29] was 1.59 µM and the TGI [29] was 3.19 µM. For the same compound, the GI50 [30] was 1.72 µM, the TGI [30] was 3.66 µM and the GI50 [6] was 2.2 µM. For the same compound, the TGI [6] was 6.22 µM, the GI50 [31] was 1.54 µM and the TGI [31] was 3.55 µM. For the same compound, the GI50 [32] was 1.83 µM, the TGI [32] was 4.61 µM and the GI50 [33] was 2.44 µM. The TGI [33] was 8.71 µM, the GI50 [34] was 1.89 µM and the TGI [34] was 4.36 µM. The GI50 [35] was 1.58 µM, the TGI [35] was 5.18 µM and the GI50 [36] was 1.92 µM. For the same compound, the TGI [36] was 4.89 µM, the GI50 [37] was 2.49 µM and the TGI [37] was 7.16 µM. It also gave a GI50 [38] of 1.94 µM, a TGI [38] of 3.83 µM and a GI50 [39] of 1.65 µM. For the same compound, the TGI [39] was 3.49 µM, the GI50 [40] was 1.57 µM and the TGI [40] was 2.91 µM. For the same compound, the GI50 [41] was 1.47 µM, the TGI [41] was 3.2 µM and the GI50 [42] was 1.86 µM. The TGI [42] was 3.67 µM, the GI50 [43] was 2.01 µM and the TGI [43] was 4.63 µM. For the same compound, the GI50 [44] was 1.83 µM, the TGI [44] was 3.98 µM and the GI50 [45] was 2.04 µM. For the same compound, the TGI [45] was 5.08 µM, the GI50 [46] was 1.37 µM and the TGI [46] was 3.31 µM. It also gave a GI50 [47] of 3.5 µM, a TGI [47] of 12.1 µM and a GI50 [48] of 1.6 µM. For the same compound, the TGI [48] was 4.49 µM, the GI50 [49] was 2.35 µM and the TGI [49] was 11.3 µM. The GI50 [50] was 2.04 µM, the TGI [50] was 4.33 µM and the GI50 [51] was 2.85 µM. It also gave a TGI [51] of 17.2 µM, a GI50 [52] of 1.68 µM and a TGI [52] of 3.19 µM. The GI50 [7] was 1 µM, the TGI [7] was 2.79 µM and the GI50 [53] was 1.42 µM. It also gave a TGI [53] of 2.82 µM, a GI50 [54] of 1.74 µM and a TGI [54] of 3.48 µM. It also gave a GI50 [55] of 1.08 µM, a TGI [55] of 2.47 µM and a GI50 [56] of 1.63 µM. For the same compound, the TGI [56] was 3.05 µM.

For `CC(=O)Nc1nc(C)c(-c2csc(Nc3ccccc3)n2)s1`, the GI50 [1] was 3.43 µM, the TGI [1] was 42.8 µM and the GI50 [2] was 3.12 µM. The TGI [2] was 15.4 µM, the GI50 [8] was 2.06 µM and the TGI [8] was 8.76 µM. For the same compound, the GI50 [9] was 6.55 µM, the TGI [9] was 21.5 µM and the GI50 [10] was 8.83 µM. The TGI [10] was 21.4 µM, the GI50 [3] was 4.31 µM and the TGI [3] was 18.1 µM. The GI50 [11] was 2.16 µM, the TGI [11] was 12 µM and the GI50 [12] was 2.35 µM. The TGI [12] was 8.06 µM, the GI50 [4] was 1.57 µM and the TGI [4] was 8.28 µM. It also gave a GI50 [13] of 5.6 µM, a TGI [13] of 19.6 µM and a GI50 [14] of 1.96 µM. The TGI [14] was 13.5 µM, the GI50 [15] was 2.34 µM and the TGI [15] was 12.6 µM. For the same compound, the GI50 [16] was 8.09 µM, the TGI [16] was 20.6 µM and the GI50 [17] was 5.32 µM. For the same compound, the TGI [17] was 20.6 µM, the GI50 [18] was 3 µM and the TGI [18] was 23.5 µM. The GI50 [19] was 1.21 µM, the TGI [19] was 6.55 µM and the GI50 [20] was 3.25 µM. For the same compound, the TGI [20] was 16.1 µM, the GI50 [21] was 6.07 µM and the TGI [21] was 19.7 µM. The GI50 [22] was 4.11 µM, the TGI [22] was 82 µM and the GI50 [23] was 6.39 µM. It also gave a TGI [23] of 27 µM, a GI50 [24] of 2.12 µM and a TGI [24] of 11.7 µM. It also gave a GI50 [25] of 4.96 µM, a TGI [25] of 20.7 µM and a GI50 [26] of 4.15 µM. It also gave a TGI [26] of 16.1 µM, a GI50 [5] of 10.7 µM and a TGI [5] of 24.4 µM. The GI50 [27] was 5.16 µM, the TGI [27] was 23.2 µM and the GI50 [28] was 2.55 µM. For the same compound, the TGI [28] was 12.9 µM, the GI50 [29] was 2.32 µM and the TGI [29] was 13 µM. It also gave a GI50 [57] of 3.68 µM, a TGI [57] greater than 100 µM and a GI50 [30] of 4.25 µM. The TGI [30] was 15.9 µM, the GI50 [6] was 8.6 µM and the TGI [6] was 24 µM. It also gave a GI50 [31] of 6.59 µM, a TGI [31] of 21.2 µM and a GI50 [32] of 10.5 µM. For the same compound, the TGI [32] was 33.9 µM, the GI50 [33] was 3.92 µM and the TGI [33] was 28.6 µM. For the same compound, the GI50 [34] was 6.46 µM, the TGI [34] was 22.9 µM and the GI50 [35] was 2.37 µM. For the same compound, the TGI [35] was greater than 100 µM, the GI50 [36] was 3.6 µM and the TGI [36] was 16.3 µM. For the same compound, the GI50 [37] was 3.89 µM, the TGI [37] was 21.8 µM and the GI50 [38] was 3.38 µM. The TGI [38] was 14.1 µM, the GI50 [39] was 6.5 µM and the TGI [39] was 26.6 µM. It also gave a GI50 [40] of 4.31 µM, a TGI [40] of 16.2 µM and a GI50 [41] of 9.82 µM. For the same compound, the TGI [41] was 23.1 µM, the GI50 [42] was 10.9 µM and the TGI [42] was 23.6 µM. For the same compound, the GI50 [43] was 5.4 µM, the TGI [43] was 19.3 µM and the GI50 [44] was 3.39 µM. The TGI [44] was 20.8 µM, the GI50 [45] was 6.81 µM and the TGI [45] was 20.5 µM. The GI50 [46] was 3.57 µM, the TGI [46] was 31.7 µM and the GI50 [47] was 5.23 µM. The TGI [47] was 17.5 µM, the GI50 [48] was 2.14 µM and the TGI [48] was 7.72 µM. It also gave a GI50 [49] of 1.49 µM, a TGI [49] of 7.87 µM and a GI50 [50] of 7.66 µM. The TGI [50] was 26.8 µM, the GI50 [51] was 2.94 µM and the TGI [51] was 13.6 µM. It also gave a GI50 [52] of 4.07 µM, a TGI [52] of 15.5 µM and a GI50 [53] of 3.97 µM. It also gave a TGI [53] of 17 µM, a GI50 [54] of 3.55 µM and a TGI [54] of 16.4 µM. The GI50 [55] was 3.76 µM, the TGI [55] was 24.3 µM and the GI50 [56] was 4.13 µM. It also gave a TGI [56] of 17.2 µM, a GI50 [58] of 4.01 µM and a TGI [58] of 15.7 µM.
